From US5158946A, “Cephalosporin derivatives and pharmaceutical compositions” (Beecham Group p.l.c., priority 1989, dated 1992)
≈ marks a conversion by molar mass, not a printed value. Where a name gives a salt, the structure may show the parent alone. Read-outs that look alike come from different tables or passages of the source.

Assays:
E. coli (NCTC 10418) = assay: In vitro antibacterial activity, MIC against E. coli (NCTC 10418); assay type: cell-based
S. aureus (Oxford) = assay: In vitro antibacterial activity, MIC against S. aureus (Oxford); assay type: cell-based
[1] = Staphylococcus aureus, read-out: MIC
[2] = Escherichia coli, NCTC10418, E. coli (NCTC 10418), read-out: MIC

Row | SMILES | MIC (E. coli (NCTC 10418); E. coli (NCTC 10418)) | MIC (S. aureus (Oxford); [1]) | MIC (S. aureus (Oxford)) | MIC (E. coli (NCTC 10418); [2])
1 | CO/N=C(\C(=O)N[C@@H]1C(=O)N2C(C(=O)O)=C(OC3C=C(C)C(=O)O3)CS[C@H]12)c1csc(N)n1 (single isomer, unassigned) [3 Isomer (a)] | 0.5 µg/mL (≈ 1.01 µM) | 4 µg/mL (≈ 8.07 µM) |  | 
2 | CO/N=C(\C(=O)N[C@@H]1C(=O)N2C(C(=O)O)=C(OC3C=C(C)C(=O)O3)CS[C@H]12)c1csc(N)n1 (single isomer, unassigned) [3 Isomer (b)] | 0.12 µg/mL (≈ 0.242 µM) |  | 4 µg/mL (≈ 8.07 µM) | 
3 | CO/N=C(\C(=O)N[C@@H]1C(=O)N2C(C(=O)[O-])=C(SCC3=CC(=O)OC3)CS[C@H]12)c1csc(N)n1.[Na+] [Example 1, Sodium 7β-[2-(2-Aminothiazol-4-yl)-2-(Z)-methoxyiminoacetamido]-3-(2,5-dihydro-2-oxofuran-4-ylmethylthio)ceph-3-em-4-carboxylate] |  | 0.25 µg/mL |  | < 0.03 µg/mL
4 | CO/N=C(\C(=O)N[C@@H]1C(=O)N2C(C(=O)[O-])=C(CSC3=CC(=O)OC3)CS[C@H]12)c1csc(N)n1.[Na+] [Example 5, Sodium 7β-[2-(2-Aminothiazol-4-yl)-2-(Z)-methoxyiminoacetamido]-3-(2,5-dihydro-2-oxofuran-4-ylthiomethyl)ceph-3-em-4-carboxylate] |  | 0.25 µg/mL |  | < 0.03 µg/mL
5 | CO/N=C(\C(=O)N[C@@H]1C(=O)N2C(C(=O)[O-])=C(SCC3=CCOC3=O)CS[C@H]12)c1csc(N)n1.[Na+] [Example 7, Sodium 7β-[2-(2-Aminothiazol-4-yl)-2-(Z)-methoxyiminoacetamido]-3-(2,5-dihydro-2-oxofuran-3-ylmethylthio)ceph-3-em-4-carboxylate] |  | 0.5 µg/mL |  | < 0.03 µg/mL
6 | CO/N=C(\C(=O)N[C@@H]1C(=O)N2C(C(=O)[O-])=C(SC3CCOC3=O)CS[C@H]12)c1csc(N)n1.[Na+] (stereo partly drawn) [Example 9, Sodium 7β-[2-(2-Aminothiazol-4-yl)-2-(Z)-methoxyiminoacetamido]-3-(2-oxotetrahydrofuran-3-ylthio)ceph-3-em-4-carboxylate] |  | 2 µg/mL |  | 0.12 µg/mL
7 | CO/N=C(\C(=O)N[C@@H]1C(=O)N2C(C(=O)[O-])=C(CSC3=C(Cl)C(=O)OC3)CS[C@H]12)c1csc(N)n1.[Na+] [Example 13, Sodium 7β-[2-(2-Aminothiazol-4-yl)-2-(Z)-methoxyiminoacetamido]-3-(3-chloro-2,5-dihydro-2-oxofuran-4-ylthiomethyl)ceph-3-em-4-carboxylate] |  | 0.25 µg/mL |  | < 0.03 µg/mL
8 | CO/N=C(\C(=O)N[C@@H]1C(=O)N2C(C(=O)O)=C(CSc3cc(C)oc(=O)c3)CS[C@H]12)c1csc(N)n1 [Example 14, Sodium 7β-[2-(2-Aminothiazol-4-yl)-2-(Z)-methoxyiminoacetamido]-3-(6-methyl-2-oxo-2H-pyran-4-ylthiomethyl)ceph-3-em-4-carboxylate] |  | 0.5 µg/mL |  | < 0.03 µg/mL
9 | CO/N=C(\C(=O)N[C@@H]1C(=O)N2C(C(=O)[O-])=C(OCC3=CC(=O)OC3)CS[C@H]12)c1csc(N)n1.[Na+] [Example 22, Sodium 7β-[2-(2-Aminothiazol-4-yl)-2-(Z)-methoxyiminoacetamido]-3-(2,5-dihydro-2-oxofuran-4-ylmethyloxy)ceph-3-em-4-carboxylate] |  | 2 µg/mL |  | 0.06 µg/mL

The remaining lines, values ahead:

Row | MIC (E. coli (NCTC 10418); E. coli (NCTC 10418)) | MIC (S. aureus (Oxford); [1]) | MIC (S. aureus (Oxford)) | MIC (E. coli (NCTC 10418); [2]) | SMILES
10 |  | 1 µg/mL |  | 0.12 µg/mL | CO/N=C(\C(=O)N[C@@H]1C(=O)N2C(C(=O)O)=C(SC3=CC(=O)OC3)CS[C@H]12)c1csc(N)n1 [Example 2, Sodium 7β-[2-(2-Aminothiazol-4-yl)-2-(Z)-methoxyiminoacetamido]-3-(2,5-dihydro-2-oxofuran-4-ylthio)ceph-3-em-4-carboxylate]
11 |  | 1 µg/mL |  | 0.25 µg/mL | CO/N=C(\C(=O)N[C@@H]1C(=O)N2C(C(=O)O)=C(Sc3cc(C)oc(=O)c3)CS[C@H]12)c1csc(N)n1 [Example 4, Sodium 7β-[2-(2-Aminothiazol-4-yl)-2-(Z)-methoxyiminoacetamido]-3-(6-methyl-2-oxo-2H-pyran-4-ylthio)ceph-3-em-4-carboxylate]
12 |  | 0.12 µg/mL (≈ 0.241 µM) |  | < 0.03 µg/mL | Nc1nc(/C(=N/O)C(=O)N[C@@H]2C(=O)N3C(C(=O)O)=C(CSC4=CC(=O)OC4)CS[C@H]23)cs1 [Example 6, 7β-[2-(2-Aminothiazol-4-yl)-2-(Z)-hydroxyiminoacetamido]-3-(2,5-dihydro-2-oxofuran-4-ylthiomethyl)ceph-3-em-4-carboxylic acid]
13 |  | 0.25 µg/mL (≈ 0.502 µM) |  | 0.12 µg/mL (≈ 0.241 µM) | Nc1nc(/C(=N/O)C(=O)N[C@@H]2C(=O)N3C(C(=O)O)=C(SCC4=CCOC4=O)CS[C@H]23)cs1 [Example 8, 7β-[2-(2-Aminothiazol-4-yl)-2-(Z)-hydroxyiminoacetamido]-3-(2,5-dihydro-2-oxofuran-3-ylmethylthio)ceph-3-em-4-carboxylic acid]
14 |  | 0.25 µg/mL (≈ 0.502 µM) |  | 0.12 µg/mL (≈ 0.241 µM) | Nc1nc(/C(=N/O)C(=O)N[C@@H]2C(=O)N3C(C(=O)O)=C(SCC4=CC(=O)OC4)CS[C@H]23)cs1 [Example 12, 7β-[2-(2-Aminothiazol-4-yl)-2-(Z)-hydroxyiminoacetamido]-3-(2,5-dihydro-2-oxofuran-4-ylmethylthio)ceph-3-em-4-carboxylic acid]
15 |  | 0.25 µg/mL |  | < 0.03 µg/mL | CO/N=C(\C(=O)N[C@@H]1C(=O)N2C(C(=O)O)=C(CSc3ccoc(=O)c3)CS[C@H]12)c1csc(N)n1 [Example 15, Sodium 7β-[2-(2-Aminothiazol-4-yl)-2-(Z)-methoxyiminoacetamido]-3-(2-oxo-2H-pyran-4-ylthiomethyl)ceph-3-em-4-carboxylate]
16 |  | 8 µg/mL |  | < 0.06 µg/mL | Nc1nc(/C(=N/OCC(=O)O)C(=O)N[C@@H]2C(=O)N3C(C(=O)O)=C(CSC4=CC(=O)OC4)CS[C@H]23)cs1 [Example 16, 7β-[2-(2-Aminothiazol-4-yl)-2-(Z)-carboxymethoxyiminoacetamido]-3-(2,5-dihydro-2-oxofuran-4-ylthiomethyl)ceph-3-em-4-carboxylic acid, disodium salt]
17 |  | 0.25 µg/mL (≈ 0.477 µM) |  | 0.06 µg/mL (≈ 0.115 µM) | Cc1cc(SCC2=C(C(=O)O)N3C(=O)[C@@H](NC(=O)/C(=N\O)c4csc(N)n4)[C@H]3SC2)cc(=O)o1 [Example 17, 7β-[2-(2-Aminothiazol-4-yl)-2-(Z)-hydroxyiminoacetamido]-3-(6-methyl-2-oxo-2H-pyran-4-ylthiomethyl)ceph-3-em-4-carboxylic acid]
